Data on 27 compounds can be found in patent US20220089578A1, “COMPOUNDS AS GLP-1R AGONISTS” (Terns Pharmaceuticals, Inc., priority 2020, published 2022).

pEC50: −log10 of the molar value. Some results are limits rather than exact numbers.

Chain of human GLP-1R (P43220 24-463): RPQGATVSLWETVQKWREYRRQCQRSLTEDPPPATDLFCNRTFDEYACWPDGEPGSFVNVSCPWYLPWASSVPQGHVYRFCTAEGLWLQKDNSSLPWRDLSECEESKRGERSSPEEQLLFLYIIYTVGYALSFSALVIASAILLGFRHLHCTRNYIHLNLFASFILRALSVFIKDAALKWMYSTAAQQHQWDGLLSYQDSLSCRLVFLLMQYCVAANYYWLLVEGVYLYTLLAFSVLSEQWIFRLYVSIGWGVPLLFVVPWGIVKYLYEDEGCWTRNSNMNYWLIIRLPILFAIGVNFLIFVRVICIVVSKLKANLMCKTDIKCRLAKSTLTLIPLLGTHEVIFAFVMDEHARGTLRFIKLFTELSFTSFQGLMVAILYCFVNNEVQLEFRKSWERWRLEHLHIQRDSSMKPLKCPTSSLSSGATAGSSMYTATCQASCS

For one experiment, the target named is human GLP-1R (Homo sapiens, UniProt P43220). Put plainly: GLP-1R Cell Assay 1: cAMP Hunter CHO-K1 GLP1R Gs cell line, HitHunter cAMP assay. It counts as cell-based. The following applies: Table 2; cAMP Hunter CHO-K1 GLP1R Gs cells; percent activity normalized to Exendin-4. In outline:
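CHO-K1 cells overexpressing wild-type human GLP-1R treated with 3-fold serially diluted compounds for 30-60 min at 37 °C. cAMP measured by EFC competitive luminescent immunoassay; activity normalised to Exendin-4, duplicate runs, EC50 by nonlinear regression.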
Broadly, the pEC50 is the negative decadic logarithm of the EC50, by convention in mol/L. The low end stands for a large EC50, the high end for a small EC50. Regarding `N#Cc1ccc(COc2nn(C3CCN(Cc4nc5ccc(C(=O)O)cc5n4C[C@@H]4CCO4)CC3)cc2C#N)c(F)c1` [Compound 111, (S)-2-((4-(4-cyano-3-((4-cyano-2-fluorobenzyl)oxy)-1H-pyrazol-1-yl)piperidin-1-yl)methyl)-1-(oxetan-2-ylmethyl)-1H-benzo[d]imidazole-6-carboxylic acid], the pEC50 is 7.43.

`O=C(O)c1ccc2nc(CN3CCN(c4cccc(OCC5CCOCC5)n4)CC3)n(C[C@@H]3CCO3)c2c1` [Compound 33, (S)-1-(oxetan-2-ylmethyl)-2-((4-(6-((tetrahydro-2H-pyran-4-yl)methoxy)pyridin-2-yl)piperazin-1-yl)methyl)-1H-benzo[d]imidazole-6-carboxylic acid] gave a pEC50 below 6.30.

With `C[C@@H]1COC[C@H](N2CCC(c3cccc(OCc4ccc(C#N)cc4F)n3)CC2)c2nc3ccc(C(=O)O)cc3n21` [Compound 95, (1R,5R)-5-(4-(6-((4-cyano-2-fluorobenzyl)oxy)pyridin-2-yl)piperidin-1-yl)-1-methyl-1,2,4,5-tetrahydrobenzo[4,5]imidazo[1,2-d][1,4]oxazepine-9-carboxylic acid], the pEC50 is 7.33.

`O=C(O)c1ccc2nc(CN3CCN(c4cccc(OCC5CC(F)(F)C5)n4)CC3)n(C[C@@H]3CCO3)c2c1` [Compound 50, (S)-2-((4-(6-((3,3-difluorocyclobutyl)methoxy)pyridin-2-yl)piperazin-1-yl)methyl)-1-(oxetan-2-ylmethyl)-1H-benzo[d]imidazole-6-carboxylic acid] gave a pEC50 of 6.69.

As for `CCn1cncc1Cn1c(CN2CCC3(c4cccc5c4OC(C)(c4ccc(Cl)cc4F)O5)CC3C2)nc2ccc(C(=O)O)cc21` (stereo not drawn) [Compound 138, 2-((6-(2-(4-chloro-2-fluorophenyl)-2-methylbenzo[d][1,3]dioxol-4-yl)-3-azabicyclo[4.1.0]heptan-3-yl)methyl)-1-((1-ethyl-1H-imidazol-5-yl)methyl)-1H-benzo[d]imidazole-6-carboxylic acid], the pEC50 is 9.97. This pEC50 lies 3.28 log units higher than the previous one.

`N#Cc1ccc2sc(COc3cccc(N4CCN(Cc5nc6ccc(C(=O)O)cc6n5C[C@@H]5CCO5)CC4)n3)nc2c1` [Compound 129, (S)-2-((4-(6-((5-cyanobenzo[d]thiazol-2-yl)methoxy)pyridin-2-yl)piperazin-1-yl)methyl)-1-(oxetan-2-ylmethyl)-1H-benzo[d]imidazole-6-carboxylic acid] had a negative-log EC50 (pEC50) of 8.59.

With `C[C@H]1COC[C@@H](N2CCC(c3cccc(OCc4ccc(C#N)cc4F)n3)CC2)c2nc3ccc(C(=O)O)cc3n21` (single isomer, unassigned) [Compound 8-P2], the pEC50 was 7.09.

Compound `N#Cc1cc(F)c2c(c1)CCC(c1cccc(N3CCN(Cc4nc5ccc(C(=O)O)cc5n4C[C@@H]4CCO4)CC3)n1)C2` (stereo partly drawn) [Compound 4, 2-((4-(6-(6-cyano-8-fluoro-1,2,3,4-tetrahydronaphthalen-2-yl)pyridin-2-yl)piperazin-1-yl)methyl)-1-((S)-oxetan-2-ylmethyl)-1H-benzo[d]imidazole-6-carboxylic acid] gave a negative-log EC50 (pEC50) of 8.34.

`O=C(O)c1ccc2nc(CN3CCN(c4cccc(OCc5nc6c(s5)CCCC6)n4)CC3)n(C[C@@H]3CCO3)c2c1` [Compound 131, (S)-1-(oxetan-2-ylmethyl)-2-((4-(6-((4,5,6,7-tetrahydrobenzo[d]thiazol-2-yl)methoxy)pyridin-2-yl)piperazin-1-yl)methyl)-1H-benzo[d]imidazole-6-carboxylic acid] gave a pEC50 of 8.77.

Take `O=C(O)c1ccc2nc(CN3CCN(c4ccc5cn(Cc6ccccc6)nc5n4)CC3)n(C[C@@H]3CCO3)c2c1` [Compound 31, (S)-2-((4-(2-benzyl-2H-pyrazolo[3,4-b]pyridin-6-yl)piperazin-1-yl)methyl)-1-(oxetan-2-ylmethyl)-1H-benzo[d]imidazole-6-carboxylic acid]: the pEC50 is below 6.30.

`N#Cc1ccc(COc2cccc(C3CCN([C@@H]4CCn5c4nc4ccc(C(=O)O)cc45)CC3)n2)c(F)c1` (single isomer, unassigned) [Compound 6-P1] gave a pEC50 of 6.61.

In the case of `O=C(O)c1ccc2nc(CN3CCN(c4cccc(OCCC5COC5)n4)CC3)n(C[C@@H]3CCO3)c2c1` [Compound 35, (S)-1-(oxetan-2-ylmethyl)-2-((4-(6-(2-(oxetan-3-yl)ethoxy)pyridin-2-yl)piperazin-1-yl)methyl)-1H-benzo[d]imidazole-6-carboxylic acid], the pEC50 is below 6.30.

Compound `O=C(O)c1ccc2nc(CN3CCN(c4nc(OCc5ccccc5)ns4)CC3)n(C[C@@H]3CCO3)c2c1` [Compound 32, (S)-2-((4-(3-(benzyloxy)-1,2,4-thiadiazol-5-yl)piperazin-1-yl)methyl)-1-(oxetan-2-ylmethyl)-1H-benzo[d]imidazole-6-carboxylic acid] had a pEC50 below 6.30.

Regarding `N#Cc1ccc(COc2cccc(C3CCN([C@@H]4CCCCn5c4nc4ccc(C(=O)O)cc45)CC3)n2)c(F)c1` [Compound 90, (R)-6-(4-(6-((4-cyano-2-fluorobenzyl)oxy)pyridin-2-yl)piperidin-1-yl)-7,8,9,10-tetrahydro-6H-benzo[4,5]imidazo[1,2-a]azepine-2-carboxylic acid], the pEC50 was below 6.30.

Compound `N#Cc1ccc2nc(COc3cccc(N4CCN(Cc5nc6ccc(C(=O)O)cc6n5C[C@@H]5CCO5)CC4)n3)sc2c1` [Compound 110, (S)-2-((4-(6-((6-cyanobenzo[d]thiazol-2-yl)methoxy)pyridin-2-yl)piperazin-1-yl)methyl)-1-(oxetan-2-ylmethyl)-1H-benzo[d]imidazole-6-carboxylic acid] showed a pEC50 of 9.67.

`O=C(O)c1ccc2nc(CN3CCC4(c5cccc(OCc6ccccc6)n5)CC4C3)n(CC3CCO3)c2c1` (stereo not drawn) [Compound 10] showed a pEC50 of 7.86. Against the preceding compound, the pEC50 is 1.81 log units lower.

With `CN1CCC(COc2cccc(N3CCN(Cc4nc5ccc(C(=O)O)cc5n4C[C@@H]4CCO4)CC3)n2)CC1` [Compound 37, (S)-2-((4-(6-((1-methylpiperidin-4-yl)methoxy)pyridin-2-yl)piperazin-1-yl)methyl)-1-(oxetan-2-ylmethyl)-1H-benzo[d]imidazole-6-carboxylic acid], the pEC50 was below 6.30.

Turning to `O=C(O)c1ccc2nc(CN3CCN(c4cccc(OCC5CCC(F)(F)CC5)n4)CC3)n(C[C@@H]3CCO3)c2c1` [Compound 36, (S)-2-((4-(6-((4,4-difluorocyclohexyl)methoxy)pyridin-2-yl)piperazin-1-yl)methyl)-1-(oxetan-2-ylmethyl)-1H-benzo[d]imidazole-6-carboxylic acid], the pEC50 was 7.44.

As for `O=C(O)c1ccc2nc(CN3CCN(c4cccc(OCc5nc6cnccc6s5)n4)CC3)n(C[C@@H]3CCO3)c2c1` [Compound 130, (S)-1-(oxetan-2-ylmethyl)-2-((4-(6-(thiazolo[4,5-c]pyridin-2-ylmethoxy)pyridin-2-yl)piperazin-1-yl)methyl)-1H-benzo[d]imidazole-6-carboxylic acid], the pEC50 was 9.01.

In turn, `O=C(O)c1ccc2nc(CN3CCC(n4ccc(OCc5nc6ccccc6s5)n4)CC3)n(C[C@@H]3CCO3)c2c1` [Compound 101, (S)-2-((4-(3-(benzo[d]thiazol-2-ylmethoxy)-1H-pyrazol-1-yl)piperidin-1-yl)methyl)-1-(oxetan-2-ylmethyl)-1H-benzo[d]imidazole-6-carboxylic acid] showed a pEC50 of 7.54.

As to `O=C(O)c1ccc2nc(CN3CC(=O)N(c4cccc(OCc5ccccc5)n4)CC3=O)n(C[C@@H]3CCO3)c2c1` [Compound 17, (S)-2-((4-(6-(benzyloxy)pyridin-2-yl)-2,5-dioxopiperazin-1-yl)methyl)-1-(oxetan-2-ylmethyl)-1H-benzo[d]imidazole-6-carboxylic acid], the pEC50 was 7.64.

For the compound `O=C(O)c1ccc2nc(CN3CCN(c4cccc(OCc5cc6ccccc6s5)n4)CC3)n(C[C@@H]3CCO3)c2c1` [Compound 65, (S)-2-((4-(6-(benzo[b]thiophen-2-ylmethoxy)pyridin-2-yl)piperazin-1-yl)methyl)-1-(oxetan-2-ylmethyl)-1H-benzo[d]imidazole-6-carboxylic acid], the pEC50 is 9.00.

Compound `N#Cc1cnc(COc2cccc(N3CCN(Cc4nc5ccc(C(=O)O)cc5n4C[C@@H]4CCO4)CC3)n2)nc1` [Compound 16, (S)-2-((4-(6-((5-cyanopyrimidin-2-yl)methoxy)pyridin-2-yl)piperazin-1-yl)methyl)-1-(oxetan-2-ylmethyl)-1H-benzo[d]imidazole-6-carboxylic acid] gave a pEC50 of 8.03.

The compound `O=C(O)c1ccc2nc(CN3CCN(c4cccc(OCC5CCC6(CC5)COC6)n4)CC3)n(C[C@@H]3CCO3)c2c1` [Compound 46, (S)-2-((4-(6-((2-oxaspiro[3.5]nonan-7-yl)methoxy)pyridin-2-yl)piperazin-1-yl)methyl)-1-(oxetan-2-ylmethyl)-1H-benzo[d]imidazole-6-carboxylic acid] gave a pEC50 below 6.30.

For `O=C(O)c1ccc2nc(CN3CCN(c4cccc(N5CCc6cc(Cl)cc(F)c6C5)n4)CC3)n(C[C@@H]3CCO3)c2c1` [Compound 127, (S)-2-((4-(6-(6-chloro-8-fluoro-3,4-dihydroisoquinolin-2(1H)-yl)pyridin-2-yl)piperazin-1-yl)methyl)-1-(oxetan-2-ylmethyl)-1H-benzo[d]imidazole-6-carboxylic acid], the pEC50 was 8.96.

Still in this experiment, the particulars now being: Table 3; cAMP Hunter CHO-K1 GLP1R Gs cells; percent activity normalized to Exendin-4.
`O=C(O)c1ccc2nc(CN3CCN(c4ccc5c(n4)N(Cc4ccccc4)CCC5)CC3)n(C[C@@H]3CCO3)c2c1` [Compound 153, (S)-2-((4-(8-benzyl-5,6,7,8-tetrahydro-1,8-naphthyridin-2-yl)piperazin-1-yl)methyl)-1-(oxetan-2-ylmethyl)-1H-benzo[d]imidazole-6-carboxylic acid] gave a pEC50 below 6.30.

Consider `N#Cc1cc(F)c2c(c1)CCN(c1cccc(C34CCN(Cc5nc6ccc(C(=O)O)cc6n5CC5CCO5)CC3C4)n1)C2` (stereo not drawn) [Compound 168, 2-((6-(6-(6-cyano-8-fluoro-3,4-dihydroisoquinolin-2(1H)-yl)pyridin-2-yl)-3-azabicyclo[4.1.0]heptan-3-yl)methyl)-1-(oxetan-2-ylmethyl)-1H-benzo[d]imidazole-6-carboxylic acid], for which the pEC50 is 7.76.
